Experimental data as given in patent US12358921B2, “Antiviral heterocyclic compounds” (priority 2022, dated 2025).

Key:
[1] = system: HRSV; details: prophylactic use, high risk infants; cited from earlier work
[2] = system: HUMAN RSV-A (“LONG” STRAIN); assay: RSV-A assay (CPE, ATPlite) in Hep-2 cells; format: cell-based; details: human respiratory syncytial virus, 120 h, MOI 0.1, 5-day incubation
Method in brief: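 Hep-2 cells (8,000/well) given 2-fold serial compound dilutions in duplicate, then infected with RSV-A Long strain at MOI 0.1. After 5 days, virus-induced cytopathic effect quantified as cellular ATP by ATPlite luminescence, against virus-only and uninfected controls; EC50 reported in ranges.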

[3] = system: hMPV A2 TN/94-49; assay: HMPV antiviral assay Method 2 (LLC-MK2 cells with CP-100-356, ATP-Lite); format: cell-based; details: hMPV A2 TN/94-49, LLC-MK2 cells, 4 μM CP-100-356, Method 2
Method in brief: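 LLC-MK2 cells infected in suspension with hMPV A2 TN/94-49 at MOI 0.16, in serum-free OptiMEM with final 2 μg/mL TPCK-trypsin and 2 μM CP-100-356 (P-gp inhibitor). Compounds tested in duplicate, top 200 nM, 2.5-fold, 10 points; 7 days at 37 °C. ATP-Lite cell health normalised to controls; EC50 by four-parameter fit.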

[4] = system: hMPV A2 TN/94-49; assay: HMPV antiviral assay Method 1 (LLC-MK2 cells, ATP-Lite); format: cell-based; details: hMPV A2 TN/94-49, LLC-MK2 cells
Method in brief: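 LLC-MK2 cells infected in suspension with hMPV A2 TN/94-49 at MOI 0.005, 5,000 cells/well, in serum-free OptiMEM with 2 μg/mL TPCK-trypsin (final) and CaCl2; compounds in duplicate, 10 points, 2 μM top, 2.5-fold dilutions. After 7 days at 37 °C, cell health by ATP-Lite luminescence; EC50 by four-parameter fit.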

EC50 [2] [nM] | EC50 [3] [nM] | EC50 [4] [nM] | Compound | effective in reducing hospitalizations [1] [%]
– | – | – | Palivizumab | 60
< 200 | < 200 | < 500 | COc1cc(C(=O)NC[C@@](O)(c2cccc(F)c2)c2cc3c(c(-c4cc(C(F)(F)F)c(F)cc4F)n2)OC[C@]3(C)C(N)=O)cc2cn(C3CC3)nc12 [Example 295] | –
< 200 | < 200 | > 500 | C[C@@H](O)COc1cc(C(=O)NC[C@](O)(c2cc3c(c(-c4ccc(F)c(Cl)c4F)n2)OC[C@]3(C)C(N)=O)C2CC2)cc2cn(C3CC3)nc12 [Example 38] | –
< 200 | < 200 | < 500 | COc1cccc([C@](O)(CNC(=O)c2cc(OC)c3nn(C4CC4)cc3c2)c2cc3c(c(-c4cc(Cl)c(F)cc4F)n2)OC[C@]3(C)C(N)=O)c1 [Example 160] | –
< 200 | < 200 | < 500 | Cc1nc2c(OC3CC3)cc(C(=O)NC[C@@](O)(c3ccccc3)c3cc4c(c(-c5ccc(F)c(Cl)c5Cl)n3)OC[C@]4(C)C(N)=O)cc2o1 [Example 271] | –
< 200 | < 200 | < 500 | COc1cc(C(=O)NC[C@@](O)(c2cccc(F)c2)c2cc3c(c(-c4cc(C(F)(F)F)c(F)cc4F)n2)OC[C@]3(C)C(N)=O)cc2oc(C3CC3)nc12 [Example 297] | –
< 200 | < 200 | < 500 | COc1cc(C(=O)NC[C@@](O)(c2ccccc2)c2cc3c(c(-c4ccc(F)c(Cl)c4Cl)n2)OC[C@]3(C)C(N)=O)cc2cc(Cl)cnc12 [Example 294] | –
< 200 | < 200 | < 500 | COc1cc(C(=O)NC[C@@](O)(c2cccnc2)c2cc3c(c(-c4cc(Cl)c(F)cc4F)n2)OC[C@]3(C)C(N)=O)cc2cn(C3CC3)nc12 [Example 131] | –
< 200 | < 200 | > 500 | COc1cc(C(=O)NC[C@](O)(c2cc3c(c(-c4cc(F)c(F)cc4F)n2)OC[C@]3(C)C(N)=O)C2CC(F)(F)C2)cc2cn(C(F)F)nc12 [Example 33] | –
< 200 | < 200 | < 500 | [2H]C([2H])([2H])NC(=O)[C@@]1(C)COc2c1cc([C@@](O)(CNC(=O)c1cc(OC)c3nn(C4CC4)cc3c1)c1ccccc1)nc2-c1cc(Cl)c(F)cc1F [Example 140] | –
< 200 | < 200 | < 500 | COc1cc(C(=O)NC[C@@](O)(c2cccc(F)c2)c2cc3c(c(-c4ccc(F)c(Cl)c4Cl)n2)OC[C@]3(C)C(N)=O)cc2oc(C3CC3)nc12 [Example 280] | –
< 200 | < 200 | < 500 | COc1cc(C(=O)NC[C@@](O)(c2ccc(F)cc2)c2cc3c(c(-c4cc(Cl)c(F)cc4F)n2)OC[C@]3(C)C(N)=O)cc2cn(C3CC3)nc12 [Example 12] | –
< 200 | < 200 | < 500 | COc1cc(C(=O)NC[C@](O)(c2cc3c(c(-c4ccc5c(c4)OC(F)(F)O5)n2)OC[C@]3(C)C(N)=O)C2CC2)cc2cc(C)c(F)nc12 [Example 22] | –
< 200 | < 200 | < 500 | C[C@]1(C(N)=O)COc2c1cc([C@@](O)(CNC(=O)c1cc(OC3CC3)c3nn(C(F)F)cc3c1)C1CC(F)(F)C1)nc2-c1cc(F)c(F)cc1F [Example 34] | –
< 200 | < 200 | < 500 | C[C@]1(C(N)=O)COc2c1cc([C@@](O)(CNC(=O)c1cc(OC3CC3)c3nn(C4(F)CC4)cc3c1)c1ccccc1)nc2-c1cccc(Cl)c1Cl [Example 266] | –
< 200 | < 200 | < 500 | COc1cc(C(=O)NC[C@@](O)(c2ccccc2)c2cc3c(c(-c4cc(F)c(F)cc4F)n2)OC[C@]3(C)C(N)=O)cc2cn(C3(F)CC3)nc12 [Example 170] | –
< 200 | < 200 | < 500 | COc1cc(C(=O)NC[C@](O)(c2cc3c(c(-c4cc(F)c(F)cc4F)n2)OC[C@]3(C)C(N)=O)C2CC2)cc2cc(C)c(F)nc12 [Example 21] | –
< 200 | < 200 | < 500 | COc1cc(C(=O)NC[C@@](O)(c2ccccc2)c2cc3c(c(-c4cc(Cl)ccc4F)n2)OC[C@]3(C)C(N)=O)cc2cn(C3CC3)nc12 [Example 144] | –
< 200 | < 200 | < 500 | C[C@]1(C(N)=O)COc2c1cc([C@@](O)(CNC(=O)c1cc(OC3CC3)c3nn(C(F)F)cc3c1)c1ccc(F)cc1)nc2-c1ccc2c(c1Cl)OC(F)(F)O2 [Example 265] | –

EC50 [2] [nM] | EC50 [3] [nM] | EC50 [4] [nM] | Compound | effective in reducing hospitalizations [1] [%]
< 200 | < 200 | < 500 | Cc1cnc2c(OC(F)F)cc(C(=O)NC[C@@](O)(c3ccccc3)c3cc4c(c(-c5cc(Cl)c(F)cc5F)n3)OC[C@]4(C)C(N)=O)cc2c1 [Example 183] | –
< 200 | < 200 | < 500 | COc1cc(C(=O)NC[C@@](O)(c2ccccc2)c2cc3c(c(-c4ccc5c(c4)OC(F)(F)O5)n2)OC[C@]3(C)C(N)=O)cc2cn(C3CC3)nc12 [Example 18] | –
< 200 | < 200 | < 500 | COc1cc(C(=O)NC[C@@](O)(c2cccc(F)c2)c2cc3c(c(-c4cccc(Cl)c4Cl)n2)OC[C@]3(C)C(N)=O)cc2oc(C)nc12 [Example 293] | –
< 200 | < 200 | < 500 | COc1cc(C(=O)NC[C@@](O)(c2ccccc2)c2cc3c(c(-c4cc(Cl)c(F)cc4F)n2)OC[C@]3(C)C(N)=O)cc2cc(C3CC3)nnc12 [Example 90] | –
< 200 | < 200 | < 500 | COc1cc(C(=O)NC[C@@](O)(c2ccccc2)c2cc3c(c(-c4cc(Cl)c(F)cc4F)n2)OC[C@]3(C)C(N)=O)cc2cc(Cl)cnc12 [Example 187] | –
< 200 | < 200 | < 500 | Cc1cnc2c(OC3CC3)cc(C(=O)NC[C@@](O)(c3ccccc3)c3cc4c(c(-c5cc(Cl)c(F)cc5F)n3)OC[C@]4(C)C(N)=O)cc2c1 [Example 182] | –
< 200 | < 200 | < 500 | C[C@]1(C(N)=O)COc2c1cc([C@@](O)(CNC(=O)c1cc(OC3CC3)n3nc(C4CC4)cc3c1)C1CC1)nc2-c1cc(Cl)c(F)cc1F [Example 4] | –
< 200 | < 200 | < 500 | COc1cc(C(=O)NC[C@@](O)(c2cccc(F)c2)c2cc3c(c(-c4cccc(Cl)c4Cl)n2)OC[C@]3(C)C(N)=O)cc2oc(C3CC3)nc12 [Example 292] | –
< 200 | < 200 | < 500 | C[C@]1(C(N)=O)COc2c1cc([C@@](O)(CNC(=O)c1cc(OC3CC3)c3nn(C4(F)CC4)cc3c1)C1CC1)nc2-c1cc(Cl)c(F)cc1F [Example 5] | –
< 200 | < 200 | < 500 | COc1cc(C(=O)NC[C@@](O)(c2cccc(F)c2)c2cc3c(c(-c4cc(Cl)c(F)cc4F)n2)OC[C@]3(C)C(N)=O)cc2cn(C3CC3)nc12 [Example 132] | –
< 200 | < 200 | < 500 | COc1cc(C(=O)NC[C@@](O)(c2ccccc2)c2cc3c(c(-c4cc(C(F)(F)F)ccc4F)n2)OC[C@]3(C)C(N)=O)cc2cn(C3CC3)nc12 [Example 147] | –
< 200 | < 200 | < 500 | COc1cc(C(=O)NC[C@@](O)(c2ccccc2)c2cc3c(c(-c4cccc(Cl)c4Cl)n2)OC[C@]3(C)C(N)=O)cc2cn(C3CC3)nc12 [Example 260] | –
< 200 | < 200 | < 500 | [2H]C([2H])([2H])c1nc2ccc(C(=O)NC[C@@](O)(c3cccc(F)c3)c3cc4c(c(-c5ccc6c(c5Cl)OC(F)(F)O6)n3)OC[C@]4(C)C(N)=O)cc2o1 [Example 282] | –
< 200 | < 200 | < 500 | [2H]C([2H])([2H])c1nc2ccc(C(=O)NC[C@@](O)(c3cccc(F)c3)c3cc4c(c(-c5ccc(F)c(Cl)c5Cl)n3)OC[C@]4(C)C(N)=O)cc2o1 [Example 281] | –
< 200 | < 200 | < 500 | COc1cc(C(=O)NC[C@@](O)(c2ccccc2)c2cc3c(c(-c4cc(Cl)ccc4F)n2)OC[C@]3(C)C(N)=O)cc2cn(C(F)F)nc12 [Example 145] | –
< 200 | < 200 | < 500 | COc1cc(C(=O)NC[C@@](O)(c2ccccc2)c2cc3c(c(-c4cccc(Cl)c4Cl)n2)OC[C@]3(C)C(N)=O)cc2cn(C3(F)CC3)nc12 [Example 262] | –
< 200 | < 200 | < 500 | COc1cc(C(=O)NC[C@@](O)(c2ccccc2)c2cc3c(c(-c4cc(F)c(F)cc4F)n2)OC[C@]3(C)C(N)=O)cc2cn(C3CC3)nc12 [Example 171] | –
< 200 | < 200 | < 500 | COc1cc(C(=O)NC[C@](O)(c2cc3c(c(-c4ccc(F)c(C)c4Cl)n2)OC[C@]3(C)C(N)=O)C2CC2)cc2cn(C3CC3)nc12 [Example 69] | –
< 200 | > 200 | > 500 | COc1cc(C(=O)NC[C@@](O)(c2ccc(C(F)(F)F)cc2)c2cc3c(c(-c4cc(Cl)c(F)cc4F)n2)OC[C@]3(C)C(N)=O)cc2cn(C3CC3)nc12 [Example 130] | –
